Test results published in patent publication US20140341922A1, “Method for Overcoming Tolerance to Targeted Anti-Cancer Agent” (SUN R&DB Foundation, priority 2011, published 2014).
Entries after “also recorded” stand apart in the source; their conditions may differ.

What was measured:
[1] = target: T1, IGF-1R (Homo sapiens, UniProt P08069); assay: IGF-1-induced IGF-1R phosphorylation, Western blot; type: cell-based; conditions: LN686 cells, cixutumumab 6 h, then 100 ng/ml IGF-1 for 30 min
T1 construct: endogenous in cells; host or cells: LN686 cells
Procedure: Preparation of total cell lysates, Western blot analysis, and immunoprecipitation were performed according to methods described in our previous report (Morgillo et al., 2006).
LN686 cells were treated with increasing concentrations of cixutumumab for 6 h, and then stimulated with 100 ng/ml IGF-1 for 30 min.

[2] = system: 13 HNSCC and 6 NSCLC cells; assay: MTT cell viability in conventional 2D culture (TCPs); type: cell-based, human; conditions: 25 μg/ml, up to 7 days, MTT assay
Procedure: A panel of 13 HNSCC and 6 NSCLC cells grown in 2D culture conditions using TCPs were treated with 25 μg/ml cixutumumab, and the effect of cixutumumab on growth of cancer cells tested was analyzed by the MTT assay.
The effect of cixutumumab on growth of 13 HNSCC and 6 NSCLC cells was evaluated by the MTT assay, and the results are shown in FIG. 2.
LN686, UMSCC38, and A549m cells were treated with cixutumumab diluted in 1% FBS-containing medium for 3 and 5 days. Cell viability was evaluated by the MTT assay.

[3] = system: 13 HNSCC and 6 NSCLC cells; assay: MTS viability assay in PCPs and UAPs; type: cell-based, human; conditions: PCPs, 25 μg/ml, 7 days
Procedure: Cells were cultured in 96-well poly(poly-2-hydroxyethyl methacrylate [HEMA])-coated plates (PCPs) or ultra-low attached plates (UAPs). Control IgG1 (25 μg/ml), cixutumumab (25 μg/ml), PP2 (10 μM), and an integrin β3 neutralizing antibody B3A (10 μg/ml) were diluted in culture media containing 10% FBS or IGF-1 and treated alone or in combination. To examine the effect on cancer cell proliferation, a 3-(4,5-dimethylthiazol-2-yl)-2,5-diphenyltetrazolium bromide (MTT) or 3-(4,5-dimethylthiazol-2-yl)-5-(3-carboxymethoxyphenyl)-2-(4-sulfophenyl)-2H-tetrazolium (MTS) assay was performed, and to evaluate the effect on anchorage-independent colony formation, a soft agar colony formation assay was performed according to a method in our previous report (Morgillo et al., 2006).
The PCPs were prepared according to a previously reported method (Fukazawa et al., 1995). In brief, tissue culture plates were collated twice with poly-(HEMA) (10 mg/ml in 95% ethanol) at 37° C. and then washed with phosphate-buffered saline (PBS) several times.
HNSCC and NSCLC cells grown in PCPs and UAPs were treated with cixutumumab (25 μg/ml) for 7 days. Each bar represents mean±SD of 6 wells of a single representative experiment.

[4] = system: integrin β3; assay: Immunoprecipitation of integrin β3 / β1 with Src, FAK, p85; type: cell-based, human
Procedure: Total cell lysates were immunoprecipitated with antibodies against integrin β3, integrin β1, or IgG. The precipitates with protein A agarose were resolved by sodium dodecyl sulfate-polyacrylamide gel electrophoresis (SDS-PAGE) and transferred to a polyvinylidene difluoride (PVDF) membrane. Western blot analysis was performed using specific Abs described as follows, and antigen-antibody complexes were visualized using enhanced chemiluminescence plus kits (Amersham Biosciences, Piscataway, N.J.).
The LN686 cells grown in PCP were treated with cixutumumab (25 μg/ml) for indicated times prior to stimulation with 10% FBS (FIGS. 14 and 15) or IGF-1 (100 ng/ml) (FIGS. 16 and 17) in the presence or absence of anti-human IGF-1 neutralizing monoclonal antibody (αIGF-1) (FIGS. 15 and 16) for indicated times (FIG. 16) or for 30 min (FIGS. 14, 15, and 17). Immunoprecipitation with whole proteins or integrin β3 antibodies was performed on the presented proteins, and expression of the proteins was analyzed by western blot analysis.

[5] = system: recombinant soluble integrin β3 (rβ3) binding to IGF-1; assay: ELISA-type integrin binding assay on IGF-1-coated plates; conditions: 2 h
Procedure: IGF-1 (1 or 2 μg) was coated onto wells in 96-well microtiter plates and incubated with recombinant integrin β3 (0.5 μg/ml) and/or IGF-1R (0.1 or 0.5 μg/ml) protein diluted in 1 mM MnCl2-added HEPES-Tyrode buffer at room temperature for 2 h in the presence or absence of cixutumumab (10 μg/ml). Binding of integrin β3 and/or IGF-1R was detected by enzyme immunoassay using anti-His or anti-IGF-1R mAbs and avidin-labeled alkaline phosphatase-conjugated anti-mouse or anti-rabbit IgGs.
Secondly, the present inventors performed Enzyme-Linked ImmunoSorbent Assay-type integrin binding assay. Specifically, 96-well microtiter plates coated with IGF-1 were recombinant soluble IGF-1R (rIGF-1R; 5 μg/ml) or recombinant soluble integrin β3 (rβ3; 5 μg/ml), alone or in combination, in the presence or absence of cixutumumab (25 μg/ml) for 2 h. Bound IGF-1R (left) and integrin β3 (middle, right) were identified using anti-IGF1R and anti-His mAbs, respectively. The data are shown as the mean±SD of triplicate experiments (*P<0.05; **P=0.01; ***P<0.001).

[6] = system: LN686 tumor xenografts; assay: LN686 xenograft, cixutumumab and Ad-CSK; type: in vivo, mouse; conditions: after 21 days
Procedure: LN686, UMSCC38, H226B, or A549m cells (1×10^6 cells/mouse in 100 μl of PBS) were subcutaneously injected into nude mice at a single dorsal flank site (6-9 mice per group). For HNSCC patient-derived tumor xenografts, primary human tumor specimens were collected from an untreated patient who underwent lobectomies of squamous carcinoma of the oral cavity. The tumors were cut into small pieces with a size of 2-mm^3 and subcutaneously implanted into the nude mice (one piece per mouse). At 0 day (the time point when tumor size reached to 80 to 100 mm^3) mice were treated with cixutumumab (10 mg/kg, i.p., once or twice a week), Ad-EV (3×10^11 pfu, intratumoral injection, once a week), Ad-CSK (3×10^11 pfu, intratumoral injection, once a week), siCon, siintegrin β3 ([…], i.p., once a week), dasatinib (20 mg/kg, oral gavage, daily), cixutumumab and Ad-CSK, or cixutumumab and dasatinib.
To further determine the effects of inhibiting integrin β3/Src signaling on antitumor activities of cixutumumab, an adenovirus expressing c-Src tyrosine kinase that phosphorylates the autoinhibitory tyrosine 527 was used (Yeatman, 2004). […]

T1 sequence (P08069 31-1367): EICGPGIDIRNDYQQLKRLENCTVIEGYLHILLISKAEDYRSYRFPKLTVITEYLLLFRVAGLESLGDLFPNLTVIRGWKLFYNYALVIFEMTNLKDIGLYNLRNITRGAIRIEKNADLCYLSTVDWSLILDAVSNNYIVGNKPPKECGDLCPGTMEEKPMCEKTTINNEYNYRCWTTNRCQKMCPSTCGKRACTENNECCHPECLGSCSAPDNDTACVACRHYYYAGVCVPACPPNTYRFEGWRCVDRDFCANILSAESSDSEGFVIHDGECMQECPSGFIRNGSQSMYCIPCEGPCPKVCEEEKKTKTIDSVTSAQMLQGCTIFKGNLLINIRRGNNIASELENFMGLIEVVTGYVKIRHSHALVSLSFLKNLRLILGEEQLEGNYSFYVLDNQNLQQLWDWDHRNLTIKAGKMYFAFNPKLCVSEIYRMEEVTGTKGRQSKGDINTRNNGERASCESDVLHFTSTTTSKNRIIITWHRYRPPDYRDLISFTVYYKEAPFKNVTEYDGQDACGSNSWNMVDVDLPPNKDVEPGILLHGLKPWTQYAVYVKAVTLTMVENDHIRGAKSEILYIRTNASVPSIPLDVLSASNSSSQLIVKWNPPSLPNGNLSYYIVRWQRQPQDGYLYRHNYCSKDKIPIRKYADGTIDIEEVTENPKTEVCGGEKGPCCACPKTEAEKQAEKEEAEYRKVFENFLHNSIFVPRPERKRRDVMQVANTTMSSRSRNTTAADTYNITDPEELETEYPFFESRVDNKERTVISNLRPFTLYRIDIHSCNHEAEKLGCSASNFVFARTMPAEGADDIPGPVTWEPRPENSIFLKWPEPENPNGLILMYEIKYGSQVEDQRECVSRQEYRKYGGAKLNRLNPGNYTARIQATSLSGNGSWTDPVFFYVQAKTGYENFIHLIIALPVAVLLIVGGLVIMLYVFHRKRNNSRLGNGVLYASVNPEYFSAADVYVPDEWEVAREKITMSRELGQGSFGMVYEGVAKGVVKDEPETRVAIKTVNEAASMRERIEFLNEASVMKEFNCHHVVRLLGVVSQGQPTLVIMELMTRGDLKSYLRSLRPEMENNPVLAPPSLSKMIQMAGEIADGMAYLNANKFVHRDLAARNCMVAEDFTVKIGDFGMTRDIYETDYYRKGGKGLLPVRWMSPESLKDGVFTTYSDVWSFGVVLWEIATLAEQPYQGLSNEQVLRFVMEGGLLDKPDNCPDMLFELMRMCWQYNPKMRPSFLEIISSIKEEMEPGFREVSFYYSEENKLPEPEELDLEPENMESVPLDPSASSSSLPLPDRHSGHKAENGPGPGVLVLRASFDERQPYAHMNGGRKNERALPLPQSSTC

cixutumumab: humanized mAb targeting IGF-1R, provided by ImClone Systems
IGF-1-induced IGF-1R phosphorylation [1]: markedly inhibited; also recorded: concentration-dependent inhibitory effect | viability of cells grown in 2D culture conditions [2]: did not inhibit | inhibition in viability ([3]; 7 HNSCC and 2 NSCLC cell lines (red, resistant)): less than 20% | inhibition in viability ([3]; remaining 2 HNSCC and 2 NSCLC cell lines (black, sensitive)): more than 60% | FBS-induced associations between integrin β3 and Src or p85 and phosphorylation of FAK and Src ([4]; LN686 in PCP, 25 μg/ml, time-dependent): enhanced | associations between integrin β1 and p-Src (Y416) or p-FAK (Y861) ([4]; after IGF-1 stimulation, cixutumumab pretreatment): did not affect | ablation of IGF-1-rβ3 interaction by rIGF-1R [5]: markedly blocked | mean tumor weight compared to a control group [6]: 96%
